Legend:
[1] = test system: CCRF-CEM (human leukemic lymphoblast) cells; test: MTS cytotoxicity assay, CCRF-CEM cells; format: cell-based; settings: 0-100 µM, 72 h
Method: Figure S16. Cytotoxic activity of PUR and OLC. Tau Biosensor and CCRF-CEM (human leukemic lymphoblast) cells were treated with increasing concentrations (0-100 µM) of PUR and OLC for 72 h. Cell viability was then assessed using the MTS assay. CCRF-CEM (human leukemic lymphoblasts) cells, known for their high sensitivity to cytotoxic agents ^1, were used as positive controls. […] Calculated IC50 values are indicated in the graphs. Mean ± SEM (n = 3).

R2R3 (WT) tau peptide = biological target: T1, R2R3 (WT) tau peptide (Homo sapiens, UniProt P10636); test: SPR titration cycle kinetics, immobilized R2R3 (WT) peptide; format: binding
T1 construct: Peptides spanning R2R3—including PHF6 and PHF6*; purchased ProteoGenix (Schiltigheim, France); host or cells: chemical synthesis (custom peptide)
Method: SPR experiments were conducted using the Sierra® SPR‐24 Pro system (Bruker Daltonics, Bremen, Germany), featuring a gold‐coated microfluidic array (24 detection spots, 3 × 8 format). Data acquisition and kinetic analysis were performed using SPR Analyzer 4 software.
All experiments were conducted at 25°C using PBS (pH 7.4) supplemented with 0.05% Tween‐20 and 5% DMSO as the running buffer to ensure assay reproducibility. Assay components, including 96‐well microtiter plates (Part # 1862984; Burker) and Microplate and Reservoir Sealer (Part #1862985; Burker), were used for sample handling and were compatible with the Sierra SPR®‐24 Pro system (Bruker Daltonics, Billerica, MA, USA).
WT and mutant (P301L, V287I, and N279K) tau peptides were dissolved in 10 mM sodium acetate buffer (pH 5.0; Burker) and immobilized onto High‐Capacity Amine Sensor Surfaces (Part #1862614; Bruker) using the Amine Coupling Kit (Part #1862634; Bruker). The sensor surface was preconditioned with a Surface Elution Buffer (Part #1862656; Bruker Daltonics) and 0.1M HCl to remove contaminants and improve binding specificity. […]
PUR and OLC were prepared in PBS (pH 7.4) supplemented with 0.05% Tween‐20 and 5% DMSO. Compound interactions with tau peptides were pre‐screened using a concentration range of 1–100 μM, and subsequent binding kinetics were evaluated at optimized concentrations. […] Each analyte was sequentially injected, and association and dissociation phases were monitored to determine kinetic parameters.
SPR binding kinetics were assessed using the titration cycle kinetics (TCK) assay, which included consecutive association phases followed by a single dissociation phase. […] A reference blank injection was included for double referencing, and a single dissociation curve was recorded for the highest analyte concentration.
Sensorgrams were analyzed using the Kinetic Titration model, which was integrated into the global kinetic fitting model of the SPR Analyzer 4 software. […]

T1 sequence (P10636 592-653 limits assumed): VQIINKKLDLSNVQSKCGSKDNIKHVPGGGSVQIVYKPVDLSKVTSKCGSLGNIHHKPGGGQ

| SMILES | IC50 [1] [µM] | koff (R2R3 (WT) tau peptide; R2R3 WT) [s⁻¹] | kon (R2R3 (WT) tau peptide; R2R3 WT) [M⁻¹ s⁻¹] | Kd (R2R3 (WT) tau peptide; R2R3 WT peptide immobilized, 25°C, PBS pH 7.4) [µM] |
| --- | --- | --- | --- | --- |
| C/C=C(/C=O)[C@@H](CC=O)CC(=O)OCCc1ccc(O)cc1 [OLC, oleocanthal] | > 10 | – | – | – |
| O=C1c2ccccc2C(=O)c2c(O)c(O)cc(O)c21 [PUR, purpurin] | – | 0.000265 | 61 | 4.35 |
